Test results taken from patent US10449186B2, “Phenylethynyl-substituted benzenes and heterocycles for the treatment of cancer” (UNIVERSITY OF KENTUCKY RESEARCH FOUNDATION, priority 2017, dated 2019).
Read-outs that look alike come from different tables or passages of the source.

Legend:
[1] = system: LS174T colon cancer cells; assay: LS174T cell proliferation assay; assay type: cell-based; conditions: Homo sapiens, LS174T
Method: Cell proliferation assay. LS174T cells were grown in RPMI medium (Mediatech) supplemented with 5% fetal bovine serum and 1% penicillin/streptomycin. For cell proliferation assays, 3×10^4 cells/well growing in 12-well plates were treated with DMSO or inhibitors. The cell numbers and viability were analyzed by Vi-Cell Cell Viability Analyzer after 4 days. The IC50 values were calculated with GraphPad Prim 5.

[2] = read-out: inhibition of LS174T colon cancer cell proliferation
[3] = read-out: inhibition of cell proliferation (%) of colon cancer LS174T cells
[4] = Table 2, 100 nM, read-out: inhibition of cell proliferation (%) of colon cancer LS174T cells
[5] = Table 2, 1 μM, read-out: inhibition of cell proliferation (%) of colon cancer LS174T cells
[6] = Table 2, 10 μM, read-out: inhibition of cell proliferation (%) of colon cancer LS174T cells

| Structure (SMILES) | melting point | inhibition at 1 µM [1, 2] | inhibition at 0.1 µM [1, 3] | inhibition at 1 µM [1, 3] | inhibition at 10 µM [1, 3] | inhibition at 0.1 µM [1, 4] | inhibition at 1 µM [1, 5] | inhibition at 10 µM [1, 6] | inhibition at 1 µM ([1]; 1 μM, read-out: inhibition of LS174T colon cancer cell proliferation) |
| --- | --- | --- | --- | --- | --- | --- | --- | --- | --- |
| Fc1cccc(F)c1C#Cc1ccc(-n2cccc2)nc1 [Compound 5c, 5-((2,6-Difluorophenyl)ethynyl)-2-(1H-pyrrol-1-yl)pyridine] | 121 to 123 °C | > 75% | 0% | 80.5 ± 6.6% | 95.3 ± 0.8% | – | – | – | – |
| Nc1ccnc2ccc(C#Cc3c(F)cccc3F)cc12 [Compound 5cc, 6-((2,6-Difluorophenyl)ethynyl)quinolin-4-amine] | 220 to 222 °C | – | – | – | – | 0% | 66.2 ± 3.1% | 93.9 ± 0.4% | – |
| CN(C)c1cnc(C#Cc2c(F)cccc2F)cn1 [Compound 5d, 5-((2,6-Difluorophenyl)ethynyl)-N,N-dimethylpyrazin-2-amine] | 137 to 138 °C | – | – | – | – | – | 22.9 ± 9.8% | 91.6 ± 3% | – |
| Nc1ccnc2cc(C#Cc3c(F)cccc3F)ccc12 [Compound 5dd, 7-((2,6-Difluorophenyl)ethynyl)quinolin-4-amine] | 219 to 221 °C | – | – | – | – | – | 23.6 ± 2.5% | 97.7 ± 2.2% | – |
| Fc1cccc(F)c1C#Cc1ccc2[nH]ccc2c1 [Compound 5e, 5-((2,6-Difluorophenyl)ethynyl)-1H-indole] | 131 to 133 °C | – | – | – | – | – | 52.9 ± 5.9% | 91.5 ± 3.5% | – |
| CN(C)c1ccc2cc(C#Cc3c(F)cccc3F)ccc2n1 [Compound 5ee, 6-((2,6-Difluorophenyl)ethynyl)-N,N-dimethylquinolin-2-amine] | 142 to 144 °C | – | – | 2 ± 11.9% | 38.7 ± 4.3% | – | – | – | – |
| CN(C)c1ccnc2ccc(C#Cc3c(F)cccc3F)cc12 [Compound 5ff, 6-((2,6-Difluorophenyl)ethynyl)-N,N-dimethylquinolin-4-amine] | 118 to 120 °C | > 75% | 0% | 81.3 ± 1.4% | 95.5 ± 2% | – | – | – | – |
| Fc1cccc(F)c1C#Cc1cccc2[nH]ncc12 [Compound 5g, 4-((2,6-Difluorophenyl)ethynyl)-1H-indazole] | 178 to 179 °C | – | – | 19.8 ± 13.6% | 96.2 ± 2% | – | – | – | – |
| Fc1cccc(F)c1C#Cc1nccc2ccccc12 [Compound 5gg, 1-((2,6-Difluorophenyl)ethynyl)isoquinoline] | 120 to 122 °C | – | – | – | – | – | 35.4 ± 15% | 96.7 ± 0.2% | – |
| Fc1cccc(F)c1C#Cc1ccc2[nH]ncc2c1 [Compound 5h, 5-((2,6-Difluorophenyl)ethynyl)-1H-indazole] | 193 to 195 °C | – | – | 17.6 ± 7.9% | 82.9 ± 9.8% | – | – | – | – |
| Fc1cccc(F)c1C#Cc1cncc2ccccc12 [Compound 5hh, 4-((2,6-Difluorophenyl)ethynyl)isoquinoline] | 102 to 104 °C | – | – | – | – | – | 16.5 ± 2.1% | 87.9 ± 1% | – |
| Fc1cccc(F)c1C#Cc1ccc2cn[nH]c2c1 [Compound 5i, 6-((2,6-Difluorophenyl)ethynyl)-1H-indazole] | 192 to 194 °C | > 75% | – | 81.5 ± 2.9% | 97 ± 1.1% | – | – | – | – |
| Fc1cccc(F)c1C#Cc1cccc2cnccc12 [Compound 5ii, 5-((2,6-Difluorophenyl)ethynyl)isoquinoline] | 115 to 117 °C | – | – | – | – | – | 64.2 ± 6.1% | 93.6 ± 0.5% | – |
| Cn1ncc2cc(C#Cc3c(F)cccc3F)ccc21 [Compound 5j, 5-((2,6-difluorophenyl)ethynyl)-1-methyl-1H-indazole] | 107 to 109 °C | – | – | – | – | 0% | 58.4 ± 9.6% | 94.6 ± 3.5% | – |
| Fc1cccc(F)c1C#Cc1ccc2cnccc2c1 [Compound 5jj, 6-((2,6-difluorophenyl)ethynyl)isoquinoline] | 97 to 99 °C | – | – | – | – | – | 11.6 ± 21.3% | 82.4 ± 10.2% | – |
| Cn1ncc2ccc(C#Cc3c(F)cccc3F)cc21 [Compound 5k, 6-((2,6-Difluorophenyl)ethynyl)-1-methyl-1H-indazole] | 117 to 119 °C | – | – | – | – | 0% | 85.9 ± 5.4% | 98.1 ± 0.4% | > 75% |
| Fc1cccc(F)c1C#Cc1cnc(Cl)c2ccccc12 [Compound 5kk, 1-Chloro-4-((2,6-difluorophenyl)ethynyl)isoquinoline] | 145 to 146 °C | – | 0.8 ± 36.1% | 48.1 ± 18.1% | 94 ± 0.5% | – | – | – | – |
| Fc1ccc2ccnc(C#Cc3c(F)cccc3F)c2c1 [Compound 5ll, 1-((2,6-Difluorophenyl)ethynyl)-7-fluoroisoquinoline] | 177 to 178 °C | – | 0% | 71.1 ± 3.5% | 96.2 ± 0.1% | – | – | – | – |
| Fc1cccc(F)c1C#Cc1ccc2ccccc2n1 [Compound 5m, 2-((2,6-Difluorophenyl)ethynyl)quinoline] | 127 to 129 °C | – | 6.1 ± 27% | 67.3 ± 13.6% | 93.8 ± 1.7% | – | – | – | – |
| Nc1ncc(C#Cc2c(F)cccc2F)c2ccccc12 [Compound 5mm, 4-((2,6-Difluorophenyl)ethynyl)isoquinolin-1-amine] | 200 to 201 °C | – | 35.5 ± 1.7% | 86.2 ± 1.6% | 93.1 ± 1.6% | – | – | – | – |
| Fc1cccc(F)c1C#Cc1cnc2ccccc2c1 [Compound 5n, 3-((2,6-Difluorophenyl)ethynyl)quinoline] | 115 to 117 °C | – | 0% | 41.7 ± 6.5% | 90.4 ± 1% | – | – | – | – |
| Fc1cccc(F)c1C#Cc1ccnc2ccccc12 [Compound 5o, 4-((2,6-Difluorophenyl)ethynyl)quinoline] | 101 to 102 °C | – | – | 15.4 ± 9.1% | 59 ± 7.5% | – | – | – | – |
| Fc1cccc(F)c1C#Cc1cc2ccccc2nc1Cl [Compound 5p, 2-Chloro-3-((2,6-difluorophenyl)ethynyl)quinoline] | 137 to 138 °C | – | – | 28.4 ± 10.5% | 85.1 ± 6.2% | – | – | – | – |
| Fc1cccc(F)c1C#Cc1cnc2ccccc2c1Cl [Compound 5q, 4-Chloro-3-((2,6-difluorophenyl)ethynyl)quinoline] | 140 to 142 °C | – | – | – | – | 0% | 51.5 ± 20.4% | 80.4 ± 13.7% | – |
| Fc1cccc(F)c1C#Cc1ccc2cncnc2c1 [Compound 5rr, 7-((2,6-Difluorophenyl)ethynyl)quinazoline] | 166 to 168 °C | – | – | – | – | – | 33.8 ± 4.8% | 96.3 ± 0.8% | – |
| Fc1ccc2cc(C#Cc3c(F)cccc3F)cnc2c1 [Compound 5s, 3-((2,6-Difluorophenyl)ethynyl)-7-fluoroquinoline] | 142 to 143 °C | – | 14.8 ± 5.5% | 69.4 ± 4.5% | 95.1 ± 1.6% | – | – | – | – |
| Fc1cccc(F)c1C#Cc1cnc2c(F)cccc2c1 [Compound 5t, 3-((2,6-Difluorophenyl)ethynyl)-8-fluoroquinoline] | 136 to 137 °C | – | 8.8 ± 5.1% | 63.6 ± 8.4% | 89.1 ± 8.2% | – | – | – | – |
| Fc1cccc(F)c1C#Cc1ccnc2cc(Cl)ccc12 [Compound 5u, 7-Chloro-4-((2,6-difluorophenyl)ethynyl)quinoline] | 130 to 132 °C | – | – | 36 ± 0.4% | 74.3 ± 0.2% | – | – | – | – |
